Patent US20210323914A1, “IONIZABLE CATIONIC LIPID FOR RNA DELIVERY” (Arcturus Therapeutics, Inc., priority 2017, published 2021)
“And” between values parts separate entries of the source, which are not always exact repeats. Identical values can stand only once.

Columns and labels:
[1] = tested on: Factor VII; test: In vivo mouse Factor VII siRNA knockdown with lipid nanoparticles; parameters: species or system C57BL/6 mice; conditions: intravenous, mice, 48 hours
Description: The first pair of numbers denotes the number of carbons in the ester, including the carbonyl, for L1 and L2; the pair of numbers in the parenthesis denotes the number of carbons in each branch of the branched alkyl, R1 or if R2 is also branched, R1/R2 (an asterisk denotes a double bond); the number of carbons in R3 is given; and the last line denotes the substitution for R4 and R5. The ATX number is given for reference herein. Calculated Log D values (c-Log D) and calculated pKa (c-pKa) values are given, as well as measured pKa in parenthesis (measured in the Formulation milieu). The c-Log D and c-pKa values are generated by ACD Labs Structure Designer v12.0. Bioactivity is percentage in vivo Factor VII knockdown at a dose of 0.03 mg/kg, unless otherwise designated.
Using a liver-directed in vivo screen of the liposome libraries, a series of compounds were tested that facilitate high levels of siRNA mediated gene silencing in hepatocytes, the cells comprising the liver parenchyma. Factor VII, a blood-clotting factor, is a suitable target gene for assaying functional siRNA delivery to liver. Because this factor is produced specifically in hepatocytes, gene silencing indicates successful delivery to parenchyma, as opposed to delivery to the cells of the reticulo-endothelial system (e.g., Kupffer cells). Furthermore, Factor VII is a secreted protein that can be readily measured in serum, obviating the need to euthanize animals. Silencing at the mRNA level can be readily determined by measuring levels of protein. This is because the protein's short half-life (2-5 hour). Compositions with siRNA directed to […] were Formulated with the lipid, and comparator sample phosphate-buffered saline (PBS). Female C57BL/6 mice (6-8 week old) were used for FVII siRNA knockdown (KD) experiments.
All Formulations were administered intravenously via tail vein injection at a dose of 0.03 and 0.1 mg/kg at a dosing volume of […]. Terminal blood collection was performed via cardiac puncture under 2% isoflurane at 48 hours after Formulation injections. Blood was collected into 0.109 M citrate buffer tube and processed by centrifugation at 1200 G for 10 min. Plasma was collected and Factor VII protein levels were analyzed by chromogenic assay (Biophen FVII, Aniara Corporation). A standard curve was constructed using samples from PBS-injected mice and relative Factor VII expression was determined by comparing treated groups to untreated PBS control.

[2] = Measured pKa of cationic lipids in LNP or micellar formulations by TNS fluorescence; type: physicochemical; conditions: for pKa / (pKa) measured pKa: measured in the Formulation milieu, TNS fluorescence, 1 mM total lipids; for Δ measured pKa vs ATX-0002: change on shortening the ester
Experimental: pKa of cationic lipids in LNP or micellar Formulations were measured by the procedure of Jayaraman, 2012, Angew. Chem. Int. Ed., 51:8529-33, hereby incorporated by reference. Lipid micelles or LNPs are diluted to 1 mM total lipids in universal buffer with a pH range between 3 and 12 in presence of 0.06 mg/mL 6-(p-toluidino)-2-naphthalenesulfonic acid sodium salt (TNS) reagent (Sigma Aldrich), a pH sensitive fluorescence probe. The anionic TNS molecule fluoresces when associated with the surface of positively charged membranes but is not fluorescent when free in solution, allowing measurement of pKa. The TNS signal is measured on a spectral plate reader. The TNS signal is plotted as function of the pH and analyzed using a non-linear (Boltzman) to determine the pKa.
Reagents used in the assay include • Hepes free acid, CAS: 7365-45-9 (VWR, 0511-1KG or equivalent) • MES, HPLC grade: (Sigma 105228-100G or equivalent) • Ammonium acetate, HPLC grade: (Sigma 90335-100 mL or equivalent) • Sodium chloride, HPLC grade (VWR EM-MX0475-1 or equivalent) • TNS (Sigma-Aldrich T9792-250 mg or equivalent) • Hydrochloric acid • DMSO • DPBS without calcium and magnesium (GE, SH30028.02 or equivalent) • H2O, HPLC grade (OmniSolv, WX0004-1 or equivalent)
To prepare a stock solution of Universal Buffer (UB) in a polystyrene sterile storage bottle, prepare 1 L using the following table.
Reagents are sterile filtered through a 0.2 μm filter. Preparation of UB solution includes adding 5 mL of 1 M HCl to a 350 mL stock solution.
To prepare a pH ladder, centrifuge tubes (50 mL) with 20 mL UB buffer are used. (pH ˜3) and differing amounts of 2 N NaOH. Stock solutions of TNS at 1 mg/mL in DMSO. 60 μL of TNS at 1 mg/mL is added to 940 μL water to reach a working solution concentration of 0.06 mg/mL. Five test samples, 1 mL of LNP sample in PBS at 1 mM total lipid, and 1 reference sample are analyzed per plate. Samples at different pH values are prepared in wells in which 25 μL of 0.06 mg/mL TNS is added. 15 μL of test samples is added per well. The microplate is incubated for 15 minutes at room temperature in the dark. TNS template can be used to format data from the plate reader. Perform non-linear (Boltzman) regression analysis of the samples in Origin Pro 8 or equivalent software.

| Structure (SMILES) | Bioactivity: percentage in vivo Factor VII knockdown ([1]; dose 0.03 mg/kg) [percentage] | pKa [2] | also measured |
| --- | --- | --- | --- |
| CCC/C=C/CCC(CC/C=C/CCC)OC(=O)CCCCCN(CCCCCC(=O)OC/C=C\CCCCCC)C(=O)SCCN(C)C | 82 | 5.94 |  |
| CCC/C=C/CCC(CC/C=C/CCC)OC(=O)CCCN(CCCC(=O)OC/C=C\CCCCCC)C(=O)SCCN(C)C | 72 | 6 |  |
| CCCCCC/C=C\COC(=O)CCCCCCCN(CCCCCCCC(=O)OC(CCCC)CCCC)C(=O)SCCN(C)C | 71 | 6.22 |  |
| CCCCCC/C=C\COC(=O)CCCCCCCN(CCCC(=O)OC(CCCCCCC)CCCCCCC)C(=O)SCCN(C)C | 73 | 5.38 |  |
| CCCCCC/C=C\COC(=O)CCCCCN(CCCCC(=O)OC(CCCCCCC)CCCCCCC)C(=O)SCCN(C)C | 90 | 5.9 |  |
| CCCCCC(CCCCC)OC(=O)CN(CC(=O)OC(CCCCC)CCCCC)C(=O)SCCCN(C)C [drawing 51] | 0 | 6.28 | (pKa) measured pKa [2]: 6.17 |
| CCCCCC/C=C\COC(=O)CCCN(CCCC(=O)OC(CCCCCCCC)CCCCCCCC)C(=O)SCCN(C)C [drawing 76] | 80 | 6.06 |  |
| CCCCCC/C=C\COC(=O)CCCN(CC(=O)OC(CCCCCCC)CCCCCCC)C(=O)SCCN(C)C | 40 | 5.83 |  |
| CCC/C=C/CCC(CC/C=C/CCC)OC(=O)CCCCCCN(CCCCCCC(=O)OC/C=C\CCCCCC)C(=O)SCCN(C)C | 67 | 5.68 |  |
| CCC/C=C/CCC(CC/C=C/CCC)OC(=O)CCCN(CCCCCC(=O)OC/C=C\CCCCCC)C(=O)SCCN(C)C | 75 | 5.93 |  |
| CCCCCCCC(CCCCCCC)OC(=O)CCCN(CCCC(=O)OC(CCCCCCC)CCCCCCC)C(=O)SCCCN(CC)CC | 97 | 6.31 |  |
| CCCCCC/C=C\COC(=O)CCCN(CC(=O)OC(CCCCCCC)CCCCCCC)C(=O)SCCCN(CC)CC | 70 | 6.53 |  |
| CCCCCC/C=C\COC(=O)CCCN(CCCC(=O)OC(CCCCCCC)CCCCCCCC)C(=O)SCCCN(CC)CC (stereo not shown) | 93 | 6.65 |  |
| CCCCCC/C=C\COC(=O)CCCN(CCCC(=O)OC(CCCCCC)CCCCCCC)C(=O)SCCN(C)C (stereo not shown) [ATX-0058] | 86 | 5.95 | Factor VII knockdown activity compared with ATX-002 (FIG. 18) ([1]; both at 0.03 and 0.1 mg/kg): substantially more effective than ATX-002; Δ measured pKa vs ATX-0002 [2]: no impact |
| CCCCCCC(CCCCC)OC(=O)CCCN(CCCCC(=O)OC(CCCCC)CCCCC)C(=O)SCCN(C)C (stereo not shown) [ATX-0085] | 56 |  |  |
| CCCCCC/C=C\COC(=O)CN(CC(=O)OC(CCCCCCC)CCCCCCC)C(=O)SCCCN(C)C | 62 | 6.44 |  |

| Structure (SMILES) | Bioactivity: percentage in vivo Factor VII knockdown ([1]; dose 0.03 mg/kg) [percentage] | pKa [2] | also measured |
| --- | --- | --- | --- |
| CCCCCC(CCCCC)OC(=O)CN(CC(=O)OC(CCCCC)CCCCC)C(=O)SCCCN(CC)CC |  | 6.21 |  |
| CCCCCC/C=C\COC(=O)CCCN(CC(=O)OC(CCCCCCC)CCCCCCC)C(=O)SCCCN(C)C | 53 | 6.85 |  |
| CCCCCC(CCCCC)OC(=O)CCCN(CCCC(=O)OC(CCCCC)CCCCC)C(=O)SCCCN(CC)CC |  | 5.56 | Bioactivity: percentage in vivo Factor VII knockdown ([1]; dose 0.1 mg/kg): 27 (0.1 mg/ kg) percentage |
| CCCCCC(CCCCC)OC(=O)CCCN(CCCC(=O)OC(CCCCC)CCCCC)C(=O)SCCCN(C)C |  | 6.8 | Bioactivity: percentage in vivo Factor VII knockdown ([1]; dose 0.1 mg/kg): 14 (0.1 mg/ kg) percentage |
| CCCCCC/C=C\COC(=O)CCCCCN(CCCCCC(=O)OC(CCCCCCC)CCCCCCC)C(=O)SCCCN(CC)CC | 95 | 6.45 |  |
| CCCCCC/C=C\COC(=O)CCCN(CCCC(=O)OC(CCCCCCC)CCCCCCC)C(=O)SCCCN(CC)CC | 96 | 6.66 |  |
| CCCCCC/C=C\COC(=O)CCCCCCCN(CCCC(=O)OC(CCCCCC)CCCCCC)C(=O)SCCN(C)C | 63 | 5.61 |  |
| CCCCCC/C=C\COC(=O)CCCCCCCN(CCCCCCCC(=O)OC(CCCCCC)CCCCCC)C(=O)SCCN(C)C [ATX-0093] | 70 | 5.79 |  |
| CCCCCC(CCCCC)OC(=O)CN(CC(=O)OC(CCCCC)CCCCC)C(=O)SCCCN(C)C [drawing 52] | 0 |  | (pKa) measured pKa [2]: 6.28 and 6.17 |
| CCCCCC/C=C\COC(=O)CCCCCCN(CCCCCCC(=O)OC(CCCCCC)CCCCCC)C(=O)SCCN(C)C | 66 | 5.67 |  |
| CCCCCC/C=C\COC(=O)CN(CC(=O)OC(CCCCCCCC)CCCCCCCC)C(=O)SCCCCN(C)C | 90 | 6.69 |  |
| CCCCCC/C=C\COC(=O)CN(CC(=O)OC(CCCCCCCC)CCCCCCCC)C(=O)SCCCCN(CC)CC | 97 | 6.9 |  |
| CCCCCC/C=C\COC(=O)CCCCCCCN(CCCCCCCC(=O)OC(CCCCCCCC)CCCCCCCC)C(=O)SCCN(C)C [ATX-0096] | 40 | 5.59 |  |
| CCCCCC/C=C\COC(=O)CCCCCCCN(CCCCCCCC(=O)OC(CCCCCCC)CCCCCCC)C(=O)SCCN(C)C [ATX-0097] | 71 | 5.89 |  |
| CCCCCC/C=C\COC(=O)CN(CC(=O)OC(CCCCCCCC)CCCCCCCC)C(=O)SCCN(C)C [ATX-0061] | 0 | 5.13 | Δ measured pKa vs ATX-0002 [2]: −0.90 |
